Laboratory results as given in patent US10155004B2, “17-hydroxy-17-pentafluoroethyl-estra-4,9(10)-dien-11-aryl derivatives, method of production thereof and use thereof for the treatment of diseases” (BAYER INTELLECTUAL PROPERTY GMBH, priority 2009, dated 2018).

Columns and labels:
[1] = molecular target: T1, human progesterone receptor B (Homo sapiens, UniProt P06401); assay: Progesterone receptor-antagonistic action in stably transfected SK-N-MC cells, MTV-LUC reporter (PR-B); format: cell-based; conditions: antagonism of 0.1 nmol/l promegestone, 24 hours, LUC reporter, read-out: Progesterone receptor B (PR-B) Potency IC50
T1 construct: expressed in transfected cells; host or cells: SK-N-MC human neuroblastoma cells, stably transfected
T1 sequence (P06401 1-933): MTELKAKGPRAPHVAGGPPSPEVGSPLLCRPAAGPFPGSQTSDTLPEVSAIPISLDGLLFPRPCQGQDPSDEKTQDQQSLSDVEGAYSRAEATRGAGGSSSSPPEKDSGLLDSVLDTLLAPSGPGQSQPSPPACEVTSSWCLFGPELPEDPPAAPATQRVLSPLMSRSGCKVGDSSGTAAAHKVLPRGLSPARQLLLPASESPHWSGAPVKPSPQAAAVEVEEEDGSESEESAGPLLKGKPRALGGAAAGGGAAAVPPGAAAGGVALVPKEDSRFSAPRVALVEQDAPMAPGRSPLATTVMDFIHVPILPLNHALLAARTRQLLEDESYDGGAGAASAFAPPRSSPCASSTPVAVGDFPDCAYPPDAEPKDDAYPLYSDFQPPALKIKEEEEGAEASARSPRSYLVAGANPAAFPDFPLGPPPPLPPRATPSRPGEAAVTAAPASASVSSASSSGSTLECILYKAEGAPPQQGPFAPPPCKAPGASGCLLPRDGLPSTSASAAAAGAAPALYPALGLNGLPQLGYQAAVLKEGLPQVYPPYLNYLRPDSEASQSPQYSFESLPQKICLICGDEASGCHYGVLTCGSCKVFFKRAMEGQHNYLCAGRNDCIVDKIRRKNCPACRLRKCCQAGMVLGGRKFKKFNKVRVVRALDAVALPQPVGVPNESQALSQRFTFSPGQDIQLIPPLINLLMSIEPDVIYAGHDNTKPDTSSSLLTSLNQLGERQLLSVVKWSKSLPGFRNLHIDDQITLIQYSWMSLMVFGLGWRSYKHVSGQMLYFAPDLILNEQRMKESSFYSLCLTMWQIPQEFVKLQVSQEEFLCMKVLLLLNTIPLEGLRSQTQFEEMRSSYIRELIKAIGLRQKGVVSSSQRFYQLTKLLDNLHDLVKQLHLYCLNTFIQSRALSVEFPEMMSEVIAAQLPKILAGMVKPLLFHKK
Method: (§1) EXAMPLE 16 PROGESTERONE RECEPTOR-ANTAGONISTIC ACTION IN STABLE TRANSFECTANTS OF HUMAN NEUROBLASTOMA CELLS (SK-N-MC CELLS) WITH THE HUMAN PROGESTERONE A OR PROGESTERONE B RECEPTOR AND AN MTV-LUC REPORTER CONSTRUCT
(§2) SK-N-MC cells (human neuroblastoma cells), which have been stably transfected with plasmids, which express the human progesterone receptor B (pRChPR-B-neo) or the human progesterone receptor A (pRChPR-A-neo) and a reporter construct (pMMTV-LUC), were incubated for 24 hours either in the absence (negative control) or in the presence of increasing amounts of the respective test compound (0.01 nmol/l, 0.1 nmol/l 1 nmol/l, 10 nmol/l, 100 nmol/l and 1 μmol/l), in order to determine the agonistic efficacy. As positive control of reporter gene induction, the cells were treated with the synthetic gestagen promegestone (0.01 nmol/l, 0.1 nmol/l, 1 nmol/l, 10 nmol/l, 100 nmol/l and 1 μmol/l). For determination of the antagonistic activity, the cells were treated with 0.1 nmol/1 promegestone and additionally with increasing amounts of the respective test compound (0.01 nmol/l, 0.1 nmol/l, 1 nmol/l, 10 nmol/l, 100 nmol/l and 1 μmol/l). The activity of the LUC reporter gene (LUC=luciferase) was determined in the cell lysates and was measured as RLU (relative light units). All measured values are given as percentage efficacy and as EC50 or IC50 concentrations.
(§3) 11β-(4-Acetylphenyl)-20,20,21,21,21-pentafluoro-17-hydroxy-19-nor-17α-pregna-4,9-dien-3-one and 20,20,21,21,21-pentafluoro-17-hydroxy-11β-[4-(hydroxyacetyl)phenyl]-19-nor-17α-pregna-4,9-dien-3-one, very potent and therefore preferred examples from WO98/34947 and WO2008/058767, were tested as comparative compounds along with the test compound.

[2] = Metabolic stability in human liver microsomes (HLM); format: in vitro ADME; conditions: from HLM half-life, well-stirred model, phase I reactions; 1 μM, 0.5 mg/ml protein
Method: EXAMPLE 18 METABOLIC STABILITY OF (11β,17β)-17-HYDROXY-11[4-(METHYLSULPHONYL)PHENYL]-17-(PENTAFLUOROETHYL)ESTRA-4,9-DIEN-3-ONE AND (11β,17β)-17-HYDROXY-11-[4′-(METHYLSULPHONYL)-BIPHENYL-4-YL]-17-(PENTAFLUOROETHYL)ESTRA-4,9-DIEN-3-ONE IN HUMAN LIVER MICROSOMES (HLM)
Isolated human liver microsomes (HLM) were used for assessing the metabolic stability of compounds of general formula I.
Incubations were carried out with 2.4 ml of HLM solution (0.5 mg/ml protein content), 30 μl of the test compound (final concentration 1 μM) and 0.6 ml of the cofactor mixture (=NADPH-generating system of 3 IU glucose-6-phosphate dehydrogenase, 14.6 mg glucose-6-phosphate, 1.2 mg NADP) at 37° C. in 100 mM phosphate buffer at pH 7.4. Samples are taken at 6 time points (2-60 min), precipitated with an equal volume of methanol and the recovery of the test substances used in the supernatant is determined by LC-MS/MS analysis. The intrinsic clearance of the substance in the liver microsome preparation can be calculated from the half-life found for the breakdown of the substance. Based on this, together with various physiological characteristics according to the well-stirred model, it is then possible to predict a (metabolic) in vivo clearance with respect to phase I reactions. […]

[3] = molecular target: T2, human progesterone receptor A (Homo sapiens, UniProt P06401); assay: Progesterone receptor-antagonistic action in stably transfected SK-N-MC cells, MTV-LUC reporter (PR-A); format: cell-based; conditions: antagonism of 0.1 nmol/l promegestone, 24 hours, LUC reporter, read-out: Progesterone receptor A (PR-A) Potency IC50
T2 construct: expressed in transfected cells; host or cells: SK-N-MC human neuroblastoma cells, stably transfected
T2 sequence (P06401 1-769 isoform P06401-2): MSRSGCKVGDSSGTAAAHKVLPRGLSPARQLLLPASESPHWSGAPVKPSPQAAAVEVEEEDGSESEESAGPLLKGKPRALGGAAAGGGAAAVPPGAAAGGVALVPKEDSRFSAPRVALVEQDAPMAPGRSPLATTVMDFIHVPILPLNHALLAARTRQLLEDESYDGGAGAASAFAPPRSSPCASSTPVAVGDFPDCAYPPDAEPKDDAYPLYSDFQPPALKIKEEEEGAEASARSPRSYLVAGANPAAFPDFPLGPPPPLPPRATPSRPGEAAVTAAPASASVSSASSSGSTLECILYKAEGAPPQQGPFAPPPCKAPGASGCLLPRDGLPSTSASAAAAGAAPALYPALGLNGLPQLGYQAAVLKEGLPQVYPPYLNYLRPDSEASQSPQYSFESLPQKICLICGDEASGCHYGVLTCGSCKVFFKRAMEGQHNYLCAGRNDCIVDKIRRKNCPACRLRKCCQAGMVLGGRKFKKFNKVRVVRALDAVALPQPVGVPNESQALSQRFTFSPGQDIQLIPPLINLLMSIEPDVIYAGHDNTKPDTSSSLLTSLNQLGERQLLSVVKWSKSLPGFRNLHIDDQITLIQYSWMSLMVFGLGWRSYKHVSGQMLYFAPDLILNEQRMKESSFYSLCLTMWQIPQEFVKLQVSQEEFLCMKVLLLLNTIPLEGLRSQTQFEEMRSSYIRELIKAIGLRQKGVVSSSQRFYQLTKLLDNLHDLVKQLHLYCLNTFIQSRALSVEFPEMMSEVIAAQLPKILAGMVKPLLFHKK
Method: as §1, §2, §3

SMILES: C[C@]12C[C@H](c3ccc(-c4ccc(S(C)(=O)=O)cc4)cc3)C3=C4CCC(=O)C=C4CC[C@H]3[C@@H]1CC[C@@]2(O)C(F)(F)C(F)(F)F [Example 10, (11β,17β)-17-hydroxy-11-[4′-(methylsulphonyl)biphenyl-4-yl]-17-(pentafluoroethy)estra-4,9-dien-3-one]
- IC50 [1]: 0.013 nM
- (metabolic) in vivo clearance in humans predicted [2]: < 0.17 mL/min/kg
- IC50 [3]: 0.011 nM
